The subject of assay [1] is BJ. Briefly: cytotoxicity toward BJ-TERT fibroblasts, dose response, cell-based, RAS-independent, luminescence (AID 1933). It counts as functional. The following applies: Homo sapiens.
The subject of assay [2] is BJ. Briefly: cells. It counts as functional, cell-based. The following applies: Homo sapiens.
Assay [3] can be described thus: cytotoxicity toward DRD oncogenic fibroblasts, dose response, cell-based, non-viral oncogenic, luminescence (AID 1934). As to conditions: Homo sapiens. It counts as functional.
A further assay relates to Vero. Briefly: Vero cell cytotoxicity, cytotoxicity control for flavivirus capping enzyme inhibitors (AID 588742). The format is functional. The following applies: Chlorocebus sabaeus.
In a further assay the target is Troponin, cardiac muscle (Homo sapiens, UniProt P19429+P45379+P63316). Kind of assay: Fluorescence-based biochemical high throughput dose response assay for activators of the calcium sensitivity of cardiac Regulated Thin Filaments (RTF). [Related pubchem assays (depositor defined):AID493008, AID493018, AID504382, AID504383]. It counts as protein-complex assay.
Assay [4] addresses T1, Rac GTPase-activating protein 1 (Homo sapiens, UniProt Q9H0H5).
T1 sequence (Q9H0H5 whole entry): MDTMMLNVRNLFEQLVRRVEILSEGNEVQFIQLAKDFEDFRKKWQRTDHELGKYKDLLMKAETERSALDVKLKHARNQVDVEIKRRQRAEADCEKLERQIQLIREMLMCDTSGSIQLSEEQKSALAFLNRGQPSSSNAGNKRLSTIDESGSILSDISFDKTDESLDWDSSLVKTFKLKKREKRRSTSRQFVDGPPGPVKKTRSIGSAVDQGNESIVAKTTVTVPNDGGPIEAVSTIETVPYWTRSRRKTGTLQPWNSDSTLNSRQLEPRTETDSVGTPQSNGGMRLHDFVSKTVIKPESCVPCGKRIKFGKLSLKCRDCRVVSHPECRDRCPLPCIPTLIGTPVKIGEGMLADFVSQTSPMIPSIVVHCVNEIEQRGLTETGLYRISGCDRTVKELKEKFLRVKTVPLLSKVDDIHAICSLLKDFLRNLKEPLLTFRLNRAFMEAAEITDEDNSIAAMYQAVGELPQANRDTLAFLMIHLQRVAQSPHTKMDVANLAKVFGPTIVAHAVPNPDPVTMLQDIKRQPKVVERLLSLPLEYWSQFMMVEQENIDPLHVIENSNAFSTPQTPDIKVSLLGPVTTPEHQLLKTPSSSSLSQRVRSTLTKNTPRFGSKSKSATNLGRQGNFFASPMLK
Kind of assay: MgcRacGAP GTPase-activating activity inhibitors, confirmation, biochemical, ADP Hunter fluorescence, primary and confirmatory (AID 624330). The format is functional.

The target of assay [5] is Matrix metalloproteinase-14 (Homo sapiens, UniProt P50281). Kind of assay: Dose Response confirmation of uHTS hits for a small molecule inhibitors of MT1-MMP activation in a fluorescence assay set 1. The format is functional.
For another assay, the target named is T2, Caspase-6 (Homo sapiens, UniProt P55212).
T2 sequence (P55212 whole entry): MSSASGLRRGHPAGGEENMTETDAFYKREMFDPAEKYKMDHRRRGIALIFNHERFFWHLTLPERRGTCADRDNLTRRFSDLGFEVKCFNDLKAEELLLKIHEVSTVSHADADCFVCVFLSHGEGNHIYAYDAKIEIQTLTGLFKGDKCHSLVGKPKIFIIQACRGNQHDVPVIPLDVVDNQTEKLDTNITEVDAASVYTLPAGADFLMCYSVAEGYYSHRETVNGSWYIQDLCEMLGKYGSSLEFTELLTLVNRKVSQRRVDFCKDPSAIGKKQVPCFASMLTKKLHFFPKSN
Briefly: human caspase-6 inhibitors, dose response, biochemical, VEID-R110 fluorescence, cherry-pick (AID 720632).

Assay [6] has as its target T3, Tyrosine-protein phosphatase non-receptor type 7 (Homo sapiens, UniProt P35236).
T3 sequence (P35236 whole entry): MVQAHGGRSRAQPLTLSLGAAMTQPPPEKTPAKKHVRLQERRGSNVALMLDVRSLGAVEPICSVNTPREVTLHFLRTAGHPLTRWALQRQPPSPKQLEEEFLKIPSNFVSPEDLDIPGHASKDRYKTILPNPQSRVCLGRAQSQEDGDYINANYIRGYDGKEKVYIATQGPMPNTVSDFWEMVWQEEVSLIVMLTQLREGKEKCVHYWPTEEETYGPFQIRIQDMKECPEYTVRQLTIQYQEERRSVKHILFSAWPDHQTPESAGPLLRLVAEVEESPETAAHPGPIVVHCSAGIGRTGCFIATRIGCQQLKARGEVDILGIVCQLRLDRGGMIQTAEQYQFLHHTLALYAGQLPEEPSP
Briefly: HTS HePTP Fluorescent Assay using OMFP substrate for In Vitro dose response studies. [Related pubchem assays (depositor defined):AID1059, AID1077, AID1784, AID2068, AID2085, AID435032, AID521]. It counts as functional.

In assay [7] the target is Voltage-gated N-type calcium channel alpha-1B subunit/Amyloid beta A4 precursor protein-binding family A member 1 (Homo sapiens, UniProt Q00975+Q02410). It counts as protein assay.
Assay [8] addresses T4, Small ubiquitin-related modifier 2 (Homo sapiens, UniProt P61956). Kind of assay: SUMO2–SIM peptide binding inhibitors, dose response, selectivity assay for SUMO1 interaction inhibitor project, biochemical, fluorescence polarization, uHTS hits (AID 624385). It counts as functional. The following applies: read-out: IC50_Mean.
Assay [9] deals with Probable nicotinate-nucleotide adenylyltransferase (Staphylococcus aureus (strain N315), UniProt P65502). The format is functional, Staphylococcus aureus subsp. aureus N315. The following applies: read-out: IC50_Mean.
Assay [10] addresses T4, Small ubiquitin-related modifier 2. Kind of assay: inhibitors of SUMO2 protein-protein interaction, dose response, selectivity assay for SUMO1 interaction inhibitor project, biochemical, FRET, human SUMO2, uHTS hits (AID 624384). The following applies: read-out: IC50_Mean. The format is functional.

Each structure is given as a SMILES string. The source made the active and inactive calls.

Regarding `C=C1C(=O)O[C@@H]2C[C@@H](C)[C@@H]3C=CC(=O)[C@@]3(C)[C@@H](OC(=O)CC(=O)O[C@H]3[C@@H]4C(=C)C(=O)O[C@@H]4C[C@@H](C)[C@@H]4C=CC(=O)[C@]43C)[C@H]12`, the EC50 in the assay with BJ [1] is 0.354 µM (inconclusive); with BJ [2], 5.4 µM (inconclusive); in assay [3] it was 0.332 µM (inconclusive). In addition, the CC50 in the assay on Vero was 1.64 µM (active).

As for `CCN(CC)CCN1C(=O)c2cccc3cc(N)cc(c23)C1=O`, the EC50 at Troponin, cardiac muscle was 21.3 µM (inactive).

With `O=S(=O)(O)c1cc(Cl)cc(N=Nc2ccc(O)cc2O)c1O`, the IC50 in [4] is 83.7 µM (active); in assay [5] it was 1.41 µM (active). Also, the AC50 at Caspase-6 is 2.44 µM (active).

In the case of `O=C(O)c1cccc(-n2cccc2/C=C2/NC(=O)N(c3ccc(Cl)cc3)C2=O)c1`, the IC50 in assay [6] is 6.06 µM (active); in [7], 12.1 µM (active); in [8] it was 66 µM (inactive); in assay [9] it was 27.1 µM (active); in [10] it was 0.752 µM (active).
